The target of one assay is MMP-12 (Homo sapiens, UniProt P39900). Kind of assay: MMP-12 of Table 3. It counts as biochemical. The note with it: unit inferred.
The target in assay [1] is T1, purified recombinant human Aggrecanase-1 (rAgg1) (Homo sapiens, UniProt O75173).
T1 sequence (O75173 213-837): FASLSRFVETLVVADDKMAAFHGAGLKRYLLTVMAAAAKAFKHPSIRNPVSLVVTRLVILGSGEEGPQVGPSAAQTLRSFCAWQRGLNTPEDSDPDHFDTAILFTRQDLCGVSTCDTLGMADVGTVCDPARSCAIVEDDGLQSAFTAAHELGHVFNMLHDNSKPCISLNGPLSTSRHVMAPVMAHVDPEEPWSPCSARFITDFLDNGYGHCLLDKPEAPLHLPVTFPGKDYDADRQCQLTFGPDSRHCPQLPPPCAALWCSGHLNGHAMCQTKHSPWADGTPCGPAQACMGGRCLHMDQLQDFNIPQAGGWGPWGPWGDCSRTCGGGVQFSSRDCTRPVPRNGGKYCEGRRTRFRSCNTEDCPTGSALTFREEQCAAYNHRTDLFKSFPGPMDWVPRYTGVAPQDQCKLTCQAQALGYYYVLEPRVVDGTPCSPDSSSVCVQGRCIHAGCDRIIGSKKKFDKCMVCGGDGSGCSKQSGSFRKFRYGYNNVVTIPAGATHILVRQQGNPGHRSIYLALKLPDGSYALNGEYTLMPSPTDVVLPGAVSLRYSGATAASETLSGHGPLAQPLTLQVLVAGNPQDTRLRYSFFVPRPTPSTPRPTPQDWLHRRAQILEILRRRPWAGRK
Description: In vitro fluorescence screen for Aggrecanase-1 inhibitors. It counts as biochemical. The note with it: Table 3; for IC50: read-out: Agg1 IC50; for Ki: read-out: Ki Agg1.

The target in a further assay is T2, recombinant human MMP-2 (Homo sapiens, UniProt P08253).
T2 sequence (P08253 110-660): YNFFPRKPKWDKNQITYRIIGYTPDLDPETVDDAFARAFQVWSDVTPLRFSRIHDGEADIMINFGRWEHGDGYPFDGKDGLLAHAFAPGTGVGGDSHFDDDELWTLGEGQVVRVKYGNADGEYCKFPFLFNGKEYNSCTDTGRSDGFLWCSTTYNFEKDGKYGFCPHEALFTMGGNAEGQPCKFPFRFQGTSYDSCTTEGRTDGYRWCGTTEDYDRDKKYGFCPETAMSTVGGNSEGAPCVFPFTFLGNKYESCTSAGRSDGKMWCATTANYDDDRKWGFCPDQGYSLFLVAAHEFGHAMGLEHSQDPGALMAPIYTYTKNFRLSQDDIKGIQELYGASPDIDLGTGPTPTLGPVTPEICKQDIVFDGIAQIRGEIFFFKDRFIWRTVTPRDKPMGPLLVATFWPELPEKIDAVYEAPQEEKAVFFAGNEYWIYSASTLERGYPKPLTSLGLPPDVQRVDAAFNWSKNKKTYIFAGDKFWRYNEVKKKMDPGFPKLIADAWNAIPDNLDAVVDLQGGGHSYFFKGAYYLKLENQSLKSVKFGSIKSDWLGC
Kind of assay: In vitro fluorescence assay of MMP-2 activity.

Assay [2] concerns Aggrecanase-mediated aggrecan cleavage in human OA cartilage explants. Description: Human osteoarthritic cartilage explant efficacy study (BC3 western analysis). The note with it: for EC50: 144 h, read-out: EC50 (inhibition of aggrecanase generated aggrecan fragments). It counts as cell-based. The text has this:
Human OA Cartilage Explant Culture: Discarded tissues from consented knee replacement patients were obtained from New England Baptist Hospital (Brookline, Mass.) in sterile phosphate buffered saline (PBS) after about 2-4 hrs post surgery. Cartilage slices were harvested from the knee specimens and washed several times in PBS. These cartilage slices were cut into appropriate pieces (6-8 mm) and rinsed in PBS and then in media and further cultured for additional days as cartilage explants. The medium consisted of Dulbecco's Modified Eagle's medium (DMEM, JRH Biosciences, Lenexa, Kans.), 50 μg/ml ascorbic acid (Wako, Osaka, Japan), 10 mM HEPES, pH 7.0 (Mediatech, Herndon, Va.), 2 mM L-glutamine (Mediatech), 100 U/ml antibiotic-antimycotic solution (Mediatech).
Test compounds: The test compounds are described in Examples 8OO, 8NNNNNNN, and 8WWWWWWW. Stock solutions of the compounds were prepared at 1 mg/ml in DMSO, aliquoted and stored at −20° C. Working solutions of the compounds were made in DMSO and added to the culture for efficacy studies.
Efficacy study: Cartilage explants were cultured for 2-3 days in DMEM medium in a 37° C. and 5% CO2 environment to equilibrate the tissue. Explants were weighed (˜250 mg) and placed in wells of a 24-well culture dish in 1 ml of medium and 3 replicates per treatment group. For the efficacy study, cartilage explants were cultured for 6 days in the presence or absence of various concentrations of the test compound. The media was replaced on day 3 and the experiment was terminated on day 6. Total aggrecan content of conditioned media was measured by a colorimetric assay with DMMB (Farndale, R W et al., Biochim Biophys Acta. 1986, 883, 173-177).
Western analysis: Aggrecan fragments in conditioned medium were analyzed by western analysis using neoepitope antibody, BC-3 designed to recognize the Aggrecanase-generated N-terminal interglobular neoepitope ^374ARGS. Equal cartilage weight equivalent conditioned media from each replicate well per treatment group was pooled and digested with Chondroitinase ABC (Sigma, St Louis, Mo.), Keratinase I (Seikagaku America, Falmouth, Mass.) and Keratinase II (Seikagaku America, Falmouth, Mass.) for 2 h at 37° C. Samples were concentrated by YM-10 centrifugal filter device (Millipore Corp., Bedford, Mass.), lyophilized and reconstituted with equal volume of water. Samples were separated under reducing conditions on 4-12% gradient Tris-glycine gels (Invitrogen, Carlsbad, Calif.). Proteins from the gels were transferred to nitrocellulose membranes. Immunoblots were probed using Mab BC-3 (Abcam, Cambridge, Mass.). Incubation with primary and alkaline-phosphatase-conjugated secondary goat anti-mouse IgG (Promega Corp., Madison, Wis.) was performed overnight at 4° C. and at room temperature for 1 h, respectively. The immunoblots were incubated with NBT/BCIP substrate (Promega Corp., Madison, Wis.) at room temperature to achieve optimum color development. The aggrecan fragments containing the ARGS neoepitope were quantitated by densitometry analysis and the percentage inhibition of aggrecan degradation by test compounds was determined.

In assay [3] the target is T3, purified recombinant human Aggrecanase-2 (Ag2t-Phe628-Strep) (Homo sapiens, UniProt Q9UNA0).
T3 construct: the form used is denoted as Ag2t-Phe628-Strep (MW=41,737)
T3 sequence (Q9UNA0 262-628): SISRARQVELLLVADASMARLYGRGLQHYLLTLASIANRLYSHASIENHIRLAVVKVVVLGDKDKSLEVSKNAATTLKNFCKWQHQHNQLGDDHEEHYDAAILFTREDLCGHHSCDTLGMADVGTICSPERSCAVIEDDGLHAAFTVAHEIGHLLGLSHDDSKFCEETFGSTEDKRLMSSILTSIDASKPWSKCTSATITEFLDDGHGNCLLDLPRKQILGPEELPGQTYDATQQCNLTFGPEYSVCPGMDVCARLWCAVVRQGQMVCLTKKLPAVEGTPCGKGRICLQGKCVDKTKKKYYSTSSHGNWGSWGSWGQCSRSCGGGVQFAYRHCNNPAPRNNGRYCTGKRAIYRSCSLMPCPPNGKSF
Description: In vitro fluorescence screen for Aggrecanase-2 inhibitors. It counts as biochemical. Conditions: Table 3; for IC50: read-out: Agg 2 IC50; for Ki: read-out: Ki Agg2.

The next assay addresses MMP-8 (Homo sapiens, UniProt P22894). Description: MMP-8 of Table 3. The note with it: unit inferred. The class given is biochemical.
Where [4] appears, read: Homo sapiens, read-out: % inhibition (BC3 analysis).

Values after ≈ are worked out from the molar mass of the structure shown. Like-named read-outs stand apart in the source and are kept apart here. A value given as a limit tells only on which side of the number the result lay.

MMP-12, sequence (P39900 106-470): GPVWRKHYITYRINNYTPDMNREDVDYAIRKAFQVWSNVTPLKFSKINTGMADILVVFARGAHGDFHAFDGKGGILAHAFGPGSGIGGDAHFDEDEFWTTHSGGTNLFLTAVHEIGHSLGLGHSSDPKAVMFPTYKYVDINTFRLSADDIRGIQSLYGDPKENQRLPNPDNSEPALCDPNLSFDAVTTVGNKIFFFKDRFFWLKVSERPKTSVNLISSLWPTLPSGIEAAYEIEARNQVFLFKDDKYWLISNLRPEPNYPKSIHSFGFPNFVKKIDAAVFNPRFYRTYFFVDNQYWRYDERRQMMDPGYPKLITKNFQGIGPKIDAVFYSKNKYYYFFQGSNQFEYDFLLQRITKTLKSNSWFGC
MMP-8, sequence (P22894 101-467, species assumed): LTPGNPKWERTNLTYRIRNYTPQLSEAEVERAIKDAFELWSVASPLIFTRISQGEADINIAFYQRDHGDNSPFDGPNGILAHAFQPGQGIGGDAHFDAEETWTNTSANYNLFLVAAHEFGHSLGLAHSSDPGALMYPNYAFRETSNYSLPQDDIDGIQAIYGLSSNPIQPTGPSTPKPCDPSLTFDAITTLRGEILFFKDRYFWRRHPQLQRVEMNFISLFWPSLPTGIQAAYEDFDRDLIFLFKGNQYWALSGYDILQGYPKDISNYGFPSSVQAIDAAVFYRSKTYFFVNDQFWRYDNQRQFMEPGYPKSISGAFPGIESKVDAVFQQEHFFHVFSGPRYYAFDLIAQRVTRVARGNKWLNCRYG

As to `CC(C)(Cc1ccc(F)cc1)NC(=O)[C@H](CCC(=O)O)NC(=O)c1ccc(-c2cccs2)cc1` [Example 8NNNNNNN, N-[2-(4-fluorophenyl)-1,1-dimethylethyl]-N^2-[4-(2-thienyl)benzoyl]-L-α-glutamine], the IC50 (in general, the concentration at which inhibition is half-maximal) against MMP-12 was 680 nM; in assay [1], below 30 nM; at recombinant human MMP-2, 2150 nM; in assay [3], below 30 nM; at MMP-8, 1210 nM. Moreover, the Ki (usually a measure of affinity in units of concentration, obtained from inhibition or displacement) in assay [1] was below 3 nM; in assay [3], 37 nM. The EC50 (usually the concentration at which the effect is half-maximal) in assay [2] (human OA cartilage explants, 6 days, BC3 analysis) is below 0.04 µg/mL. The inhibition – broadly, the drop in the measured response relative to a control, in per cent – at 0.04 µg/mL in assay [2] (Homo sapiens, 0.04 ug/ml, average of 4 donors, read-out: % inhibition (BC3 analysis)) was found to be 70.2%. Moreover, in assay [2] (Homo sapiens, 0.08 ug/ml, average of 4 donors, read-out: % inhibition (BC3 analysis)), the inhibition at 0.08 µg/mL turned out to be 84.5%. Moreover, the inhibition at 0.15 µg/mL in assay [2] (Homo sapiens, 0.15 ug/ml, average of 4 donors, read-out: % inhibition (BC3 analysis)) was found to be 66.7%. Besides, in assay [2] (Homo sapiens, 0.3 ug/ml, average of 4 donors, read-out: % inhibition (BC3 analysis)), the inhibition at 0.3 µg/mL is 73.1%. Besides, in assay [2] (Homo sapiens, 0.6 ug/ml, average of 4 donors, read-out: % inhibition (BC3 analysis)), the inhibition at 0.6 µg/mL turned out to be 98.9%. The inhibition at 1.25 µg/mL in assay [2] (Homo sapiens, 1.25 ug/ml, average of 4 donors, read-out: % inhibition (BC3 analysis)) is 99.4%. For the same compound, the inhibition at 2.5 µg/mL in assay [2] (Homo sapiens, 2.5 ug/ml, average of 4 donors) is 98.7%. Also, the inhibition at 5 µg/mL in assay [2] (Homo sapiens, 5 ug/ml, average of 4 donors) was 100%. In addition, the inhibition at 10 µg/mL in assay [2] (Homo sapiens, 10 ug/ml, average of 4 donors) was 101%.
Take `CC(C)(Cc1ccc(F)cc1)NC(=O)[C@H](CCC(=O)O)NC(=O)c1ccc(-c2ccc(Cl)s2)cc1` [Example 8WWWWWWW, N^2-[4-(5-chloro-2-thienyl)benzoyl]-N-[2-(4-fluorophenyl)-1,1-dimethylethyl]-L-α-glutamine]: the IC50 against MMP-12 was 630 nM. Also, in assay [1], the IC50 is below 30 nM and the Ki was below 3 nM. Moreover, the IC50 at recombinant human MMP-2 was determined as 1080 nM. Further, the EC50 in assay [2] (Homo sapiens) was in the range of 0.04 to 0.16 µg/mL (≈ 0.0774 to 0.309 µM). In assay [2] (setting [4]), the inhibition at 0.01 µg/mL came out at 2.85%, the inhibition at 0.02 µg/mL was 46.4%, the inhibition at 0.04 µg/mL came out at 23.5% and the inhibition at 0.08 µg/mL is 76.9%. Moreover, in assay [2] (setting [4]), the inhibition at 0.15 µg/mL was 88.5%, the inhibition at 0.3 µg/mL is 95%, the inhibition at 0.6 µg/mL was determined as 98% and the inhibition at 1.25 µg/mL turned out to be 100%. In assay [3], the IC50 is 50 nM and the Ki was found to be 42 nM. The compound also yielded an IC50 against MMP-8 of 370 nM.
Consider `CC(C)(Cc1ccccc1)NC(=O)[C@H](CCC(=O)O)NC(=O)c1ccc(-c2cccc(F)c2)cc1` [N-(1,1-dimethyl-2-phenylethyl)-N^2-[(3′-fluorobiphenyl-4-yl)carbonyl]-L-α-glutamine], for which the IC50 against MMP-12 was 1070 nM; in assay [1], below 30 nM; on recombinant human MMP-2, 6400 nM; in assay [3] it was 80 nM; against MMP-8 it was 2500 nM. The Ki was 23.2 nM in assay [1] and 180 nM in assay [3].

The record behind these values is patent US7998965B2, “Glutamate aggrecanase inhibitors” (Wyeth LLC, priority 2005, dated 2011).
